Source: patent US6706663B2, “Herbicidal 3-heterocyclic substituted benzisothiazole and benzisoxazole compounds” (Wyeth, priority 2000, dated 2004)

Assays:
[1] = system: ABUTH (Abutilon theophrasti); test: Postemergence herbicidal evaluation; type: in vivo, Medic.
Procedure, shortened: (§1)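 Seedlings grown for about two weeks were sprayed postemergence and then kept under standard greenhouse care. Injury was rated visually 4–5 weeks after treatment on a 0–9 scale against untreated controls, and ratings from repeat tests were averaged.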

GALAP (Galium aparine) [2] = test: Postemergence herbicidal evaluation; type: in vivo
Procedure, shortened: as §1

[3] = system: IPOHE (Ipomoea hederacea); test: Postemergence herbicidal evaluation; type: in vivo, (L.) Jacq.
Procedure, shortened: as §1

SETVI (Setaria viridis) [4] = test: Postemergence herbicidal evaluation; type: in vivo, (L.) Beau
Procedure, shortened: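 Ratings use a 0-9 visual scale covering stand, vigor, malformation, size, chlorosis and appearance versus a control, scored 4-5 weeks post-spray. Roughly two-week-old seedlings received about 0.0040-1.000 kg/ha active, applied in 50/50 acetone/water with 0.5% TWEEN 20. Multiple tests per compound were averaged.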

[5] = system: GLXMAW (Soybean, Williams); test: Postemergence herbicidal evaluation; type: in vivo, Glycine max, (L.) Merr. cv Williams
Procedure, shortened: as §1

[6] = system: TRZAWR (Wheat, Winter, cv Riband); test: Postemergence herbicidal evaluation; type: in vivo, Triticum aestivum
Procedure, shortened: as §1

[7] = system: ABUTH (Abutilon theophrasti); test: Preemergence herbicidal evaluation; type: in vivo, Medic.; conditions: preemergence, rated 4-5 weeks after treatment
[8] = system: AMBEL (Ambrosia artemisifolia); test: Preemergence herbicidal evaluation; type: in vivo, L.; conditions: preemergence, rated 4-5 weeks after treatment
Procedure, shortened: (§2)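 Greenhouse preemergence test: freshly planted cups were sprayed once with an aqueous acetone solution of compound. Injury was judged visually on a 0–9 scale relative to a control, four to five weeks later.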

[9] = system: CASOB (Cassia obtusifolia); test: Preemergence herbicidal evaluation; type: in vivo, L.; conditions: preemergence, rated 4-5 weeks after treatment
Procedure, shortened: as §2

[10] = system: CHEAL (Chenopodium album); test: Preemergence herbicidal evaluation; type: in vivo, L.; conditions: preemergence, rated 4-5 weeks after treatment
Procedure, shortened: as §2

GALAP (Galium aparine) [11] = test: Preemergence herbicidal evaluation; type: in vivo; conditions: preemergence, rated 4-5 weeks after treatment
Procedure, shortened: as §2

[12] = system: ECHCG (Echinochloa crus-galli); test: Preemergence herbicidal evaluation; type: in vivo, (L.) Beau; conditions: preemergence, rated 4-5 weeks after treatment
Procedure, shortened: as §2

SETVI (Setaria viridis) [13] = test: Preemergence herbicidal evaluation; type: in vivo, (L.) Beau; conditions: preemergence, rated 4-5 weeks after treatment
Procedure, shortened: as §2

ZEAMX (Corn, Field) = test: Preemergence herbicidal evaluation; type: in vivo, Zea mays, L.; conditions: preemergence, rated 4-5 weeks after treatment
[14] = system: CYPSE (Cyperus serotinus); test: Flooded paddy, preemergence weed control; type: in vivo, Rottb.; conditions: rate 0.1250 kg/ha, rated 3-4 weeks after treatment, 0-9 rating scale
Procedure, shortened: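 Seeds or propagules were planted 0.5 cm deep in silt loam and flooded to 1.5–3 cm. Compounds in 50/50 v/v aqueous/acetone were pipetted into the flood water at about 0.0080 to 0.1250 kg/ha. After 3–4 weeks in the greenhouse, effect was rated visually on a 0–9 scale versus untreated control.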

[15] = system: MOOVA (Monochoria vaginalis); test: Flooded paddy, preemergence weed control; type: in vivo, Presl.; conditions: rated 3-4 weeks after treatment, 0-9 rating scale
Procedure, shortened: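 Under paddy conditions, seeds or vegetative propagules go into the top 0.5 cm of silt loam; the soil is then flooded to 1.5–3 cm and kept so. Treated pots stay in a greenhouse; response is rated 0-9 visually versus control.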

ORYSAT (Rice, Tebonnet) = test: Flooded paddy, post-transplant rice tolerance; type: in vivo, Oryza sativa, (L.) Tebonnet; conditions: flooded paddy, post-transplant rice, rated 3-4 weeks after treatment, 0-9 rating scale
Procedure, shortened: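 Ten-day-old seedlings, 2/pot, silt loam; flood kept 1.5–3 cm over soil; herbicide applied post-transplant; greenhouse; score 0–9 visual vs control.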

CCc1cc(-c2nsc3ccc(-n4c(=O)cc(C(F)(F)F)n(C)c4=O)cc23)c(CC)s1 [Compound 8, 3-[3-(2,5-diethyl-3-thienyl)-1,2-benzisothiazol-5-yl]-1-methyl-6-(trifluoromethyl)uracil]
2.0: AMBEL preemergence herbicidal rating ([8]; Rate 0.1250 kg/ha)
0.0: ABUTH preemergence herbicidal rating ([7]; Rate 0.0620 kg/ha) | AMBEL preemergence herbicidal rating ([8]; Rate 0.0620 kg/ha) | CASOB preemergence herbicidal rating ([9]; Rate 0.0620 kg/ha) | CASOB preemergence herbicidal rating ([9]; Rate 0.1250 kg/ha) | CASOB preemergence herbicidal rating ([9]; Rate 0.2500 kg/ha) | GALAP preemergence herbicidal rating (GALAP (Galium aparine) [11]; Rate 0.0620 kg/ha) | GALAP preemergence herbicidal rating (GALAP (Galium aparine) [11]; Rate 0.1250 kg/ha) | ECHCG preemergence herbicidal rating ([12]; Rate 0.0620 kg/ha) | ECHCG preemergence herbicidal rating ([12]; Rate 0.1250 kg/ha) | ZEAMX preemergence herbicidal rating (ZEAMX (Corn, Field); Rate 0.0620 kg/ha) | ZEAMX preemergence herbicidal rating (ZEAMX (Corn, Field); Rate 0.1250 kg/ha)
5.0: Postemergence herbicidal rating, GLXMAW ([5]; rate 0.0320 kg/ha) | Postemergence herbicidal rating, TRZAWR ([6]; rate 0.0620 kg/ha)
1.0: herbicidal rating, ORYSAT (rice tolerance) (ORYSAT (Rice, Tebonnet); rate 0.0080 kg/ha)
6.0: Postemergence herbicidal rating, GALAP (GALAP (Galium aparine) [2]; rate 0.0620 kg/ha)
9.0: Postemergence herbicidal rating, ABUTH ([1]; rate 0.0320 kg/ha) | Postemergence herbicidal rating, ABUTH ([1]; rate 0.0620 kg/ha) | Postemergence herbicidal rating, IPOHE ([3]; rate 0.0320 kg/ha) | ABUTH preemergence herbicidal rating ([7]; Rate 0.1250 kg/ha) | ABUTH preemergence herbicidal rating ([7]; Rate 0.2500 kg/ha) | AMBEL preemergence herbicidal rating ([8]; Rate 0.2500 kg/ha) | CHEAL preemergence herbicidal rating ([10]; Rate 0.0620 kg/ha) | CHEAL preemergence herbicidal rating ([10]; Rate 0.1250 kg/ha) | CHEAL preemergence herbicidal rating ([10]; Rate 0.2500 kg/ha) | GALAP preemergence herbicidal rating (GALAP (Galium aparine) [11]; Rate 0.2500 kg/ha) | ECHCG preemergence herbicidal rating ([12]; Rate 0.2500 kg/ha) | SETVI preemergence herbicidal rating (SETVI (Setaria viridis) [13]; Rate 0.0620 kg/ha) | SETVI preemergence herbicidal rating (SETVI (Setaria viridis) [13]; Rate 0.1250 kg/ha) | SETVI preemergence herbicidal rating (SETVI (Setaria viridis) [13]; Rate 0.2500 kg/ha) | herbicidal rating, MOOVA ([15]; rate 0.0080 kg/ha) | herbicidal rating, MOOVA ([15]; rate 0.0320 kg/ha) | herbicidal rating, MOOVA ([15]; rate 0.1250 kg/ha)
7.0: Postemergence herbicidal rating, IPOHE ([3]; rate 0.0620 kg/ha)
4.5: herbicidal rating, CYPSE [14]
2.7: herbicidal rating, ORYSAT (rice tolerance) (ORYSAT (Rice, Tebonnet); rate 0.1250 kg/ha)
3.0: Postemergence herbicidal rating, GALAP (GALAP (Galium aparine) [2]; rate 0.0320 kg/ha) | Postemergence herbicidal rating, SETVI (SETVI (Setaria viridis) [4]; rate 0.0320 kg/ha) | ZEAMX preemergence herbicidal rating (ZEAMX (Corn, Field); Rate 0.2500 kg/ha)
4.0: Postemergence herbicidal rating, SETVI (SETVI (Setaria viridis) [4]; rate 0.0620 kg/ha) | Postemergence herbicidal rating, TRZAWR ([6]; rate 0.0320 kg/ha)
5.5: Postemergence herbicidal rating, GLXMAW ([5]; rate 0.0620 kg/ha)
1.5: herbicidal rating, ORYSAT (rice tolerance) (ORYSAT (Rice, Tebonnet); rate 0.0320 kg/ha)
